This is an account of results in patent US5177096A, “Substituted 5-((tetrazolyl)alkenyl)imidazoles and pharmaceutical methods of use thereof” (SmithKline Beecham Corporation, priority 1990, dated 1993).

Molecules are shown by their SMILES. Like-named read-outs stand apart in the source and are kept apart here.

In the assay the test system is pressor response to angiotensin II. Description: Inhibition of pressor response to angiotensin II in conscious rats. Particulars: Rattus norvegicus, read-out: IC50 (dose of compound needed to produce 50% inhibition of the control response to angiotensin II). Format: in vivo. Here is the method: Angiotensin II antagonist activity of the compounds of Formula (I) is assessed by in vitro and in vivo methods. In vitro antagonist activity is determined by the ability of the compounds to compete with ^125 I-angiotensin II for binding to vascular angiotensin II receptors and by their ability to antagonize the contractile response to angiotensin II in the isolated rabbit aorta. In vivo activity is evaluated by the efficacy of the compounds to inhibit the pressor response to exogenous angiotensin II in conscious rats and to lower blood pressure in a rat model of renin dependent hypertension.
Rats are prepared with indwelling femoral arterial and venous catheters and a stomach tube (Gellai et al., Kidney Int. 15:419, 1979). Two to three days following surgery the rats are placed in a restrainer and blood pressure is continuously monitored from the arterial catheter with a pressure transducer and recorded on a polygraph. The change in mean arterial pressure in response to intravenous injections of […] angiotensin II is compared at various time points prior to and following the administration of the compounds intravenously or orally at doses of 3 to 300 mg/kg. The dose of compound needed to produce 50% inhibition of the control response to angiotensin II (IC50) is used to estimate the potency of the compounds.

As to `CCCCc1ncc(/C=C(\Cc2cccs2)c2nnn[nH]2)n1Cc1ccccc1Cl` [Example 1, (E)-1-[2-n-Butyl-1-{(2-chlorophenyl)methyl}-1H-imidazol-5-yl]-2-(1H-tetrazol-5-yl)-3-(2-thienyl)-1-propene], the ED50 by setting is: (iv) 8 mg/kg; (po, orally) 13 mg/kg.
